Assay results reported in the NIST ThermoML archive (doi:10.1021/acs.jced.5b00940).

Assay: mn = molality of the nth substance listed, in mol/kg
Conditions: 100 kPa, Liquid; for viscosity: Capillary tube (Ostwald / Ubbelohde) method; for mass density: Vibrating tube method

CC[N+](CC)(CC)CC.[Br-] [tetraethylammonium bromide] + O
Conditions	mass density, 288.15 K [kg/m3]	mass density, 298.15 K [kg/m3]	mass density, 308.15 K [kg/m3]	mass density, 318.15 K [kg/m3]	viscosity, 288.15 K [mPa·s]	viscosity, 298.15 K [mPa·s]	viscosity, 308.15 K [mPa·s]	viscosity, 318.15 K [mPa·s]
m1 = 0.05	1001.83	998.859	993.878	991.993	1.16	0.904	0.731	0.612
m1 = 0.5	1017.91	1015.99	1010.17	1007.21	1.341	1.043	0.836	0.7
m1 = 1	1035.82	1032.57	1027.25	1023.5	1.55	1.209	0.959	0.792
m1 = 2	1060.98	1057.94	1051.91	1046.83	1.942	1.513	1.189	0.952
